In the Kinase Knowledgebase extract (Sharma et al. 2016):

Biological target: PIK3CA (human) (UniProt P42336)
Assay: Assessment of PIK3CA Kinase Activity

Chain of PIK3CA (human) (P42336 whole entry, looked up): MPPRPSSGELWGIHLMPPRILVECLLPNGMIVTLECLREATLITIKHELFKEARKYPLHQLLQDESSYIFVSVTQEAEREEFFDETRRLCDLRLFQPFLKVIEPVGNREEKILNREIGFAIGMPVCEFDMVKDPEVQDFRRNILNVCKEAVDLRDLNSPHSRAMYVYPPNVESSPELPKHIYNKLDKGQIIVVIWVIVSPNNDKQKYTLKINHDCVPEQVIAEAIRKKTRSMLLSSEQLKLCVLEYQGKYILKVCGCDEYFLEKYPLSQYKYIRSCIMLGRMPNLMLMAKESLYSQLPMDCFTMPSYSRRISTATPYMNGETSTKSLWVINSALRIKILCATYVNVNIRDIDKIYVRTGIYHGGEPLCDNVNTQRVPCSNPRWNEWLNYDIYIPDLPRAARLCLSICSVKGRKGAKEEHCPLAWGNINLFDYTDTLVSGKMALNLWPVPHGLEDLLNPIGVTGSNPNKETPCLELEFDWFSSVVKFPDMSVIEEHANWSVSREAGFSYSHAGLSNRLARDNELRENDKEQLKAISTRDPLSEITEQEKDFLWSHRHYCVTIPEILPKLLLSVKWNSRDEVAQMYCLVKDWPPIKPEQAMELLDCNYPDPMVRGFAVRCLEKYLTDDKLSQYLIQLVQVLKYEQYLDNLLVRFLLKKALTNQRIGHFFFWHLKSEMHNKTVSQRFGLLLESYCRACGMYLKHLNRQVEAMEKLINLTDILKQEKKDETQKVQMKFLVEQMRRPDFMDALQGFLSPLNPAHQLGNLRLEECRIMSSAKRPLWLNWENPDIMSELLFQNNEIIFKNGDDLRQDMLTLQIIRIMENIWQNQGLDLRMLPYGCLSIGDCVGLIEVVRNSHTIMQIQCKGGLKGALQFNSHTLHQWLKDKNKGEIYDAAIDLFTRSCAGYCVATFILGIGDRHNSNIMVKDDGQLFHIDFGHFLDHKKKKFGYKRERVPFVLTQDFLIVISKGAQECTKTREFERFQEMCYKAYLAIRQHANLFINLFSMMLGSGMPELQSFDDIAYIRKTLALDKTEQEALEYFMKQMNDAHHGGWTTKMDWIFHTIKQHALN

Row | Structure (SMILES) | IC50
1 | OCCNc1ccc(-c2ccc3c(n2)-c2sc(-c4ncnn4-c4ccc(F)cc4F)cc2CCO3)cn1 | < 1000 nM
2 | CC(C)n1ncnc1-c1nc2c(s1)CCOc1cc(-c3cnn(C(C)(C)C(=O)NC4CN(C)C4)c3)ccc1-2 | < 1000 nM
3 | CC(C)n1ncnc1-c1nc2c(s1)CCOc1ccc(C3CCN(CC(N)=O)CC3)cc1-2 | < 1000 nM
4 | CC(C)n1ncnc1-c1nc2c(s1)CCOc1ccc(-c3cncc(S(C)(=O)=O)c3)cc1-2 | < 1000 nM
5 | C[C@@H]1CN(c2ccc3c(n2)-c2sc(-c4ncnn4-c4ccc(F)cc4F)cc2CCO3)C[C@H](C)N1CC(F)(F)F | < 1000 nM
6 | CC(C)n1ncnc1-c1nc2c(s1)CCOc1cc(C3CN(C(C)(C)CO)C3)ccc1-2 | < 1000 nM
7 | CC(=O)N1CCCN(c2ccc3c(n2)-c2sc(-c4ncnn4-c4ccc(F)cc4F)cc2CCO3)CC1 | < 1000 nM
8 | O=C(c1nc2c(s1)CCOc1cc(-c3cn[nH]c3)ccc1-2)N1CCN(c2ncccn2)CC1 | < 1000 nM
9 | CN1CCC(n2ncnc2-c2nc3c(s2)CCOc2cc(-c4cnn(CCO)c4)ccc2-3)CC1 | < 1000 nM
10 | COCCNc1ccc(-c2ccc3c(n2)-c2sc(-c4ncnn4-c4ccc(F)cc4F)cc2CCO3)cn1 | < 1000 nM
11 | CN(C)C(=O)CNc1ccc2c(n1)-c1sc(-c3ncnn3-c3ccc(F)cc3F)cc1CCO2 | < 1000 nM
12 | Cc1cncc(-c2ccc3c(c2)-c2nc(-c4ncnn4C(C)C)sc2CCO3)c1 | < 1000 nM
13 | COC1CCN(C(=O)c2nc3c(s2)CCOc2cc(-c4cn[nH]c4)ccc2-3)CC1 | < 1000 nM
14 | O=C(c1nc2c(s1)CCOc1cc(-c3cn[nH]c3)ccc1-2)N1CCN2CCCC[C@@H]2C1 | < 1000 nM
15 | CC(C)n1nc(CO)nc1-c1nc2c(s1)CCOc1ccccc1-2 | < 1000 nM
16 | CN(C)C(=O)Cn1cc(-c2ccc3c(c2)OCCc2sc(-c4ncnn4CC(F)(F)F)nc2-3)cn1 | < 1000 nM
17 | CC(C)(C(=O)NCCO)n1cc(-c2ccc3c(c2)OCCc2sc(-c4ncnn4CC(F)(F)F)nc2-3)cn1 | < 1000 nM
18 | CNC(=O)c1ccc2c(c1)OCCc1cc(C(=O)N(C)c3cc(C(=O)N4CCNCC4)ccc3Cl)sc1-2 | < 1000 nM
19 | CC(C)N(CCO)C(=O)c1nc2c(s1)CCOc1ccc(-c3cnc(N)nc3)cc1-2 | < 1000 nM
20 | CC(C)c1nn(C)c(=O)n1-c1nc2c(s1)CCOc1cc(-c3cnn(CCO)c3)ccc1-2 | < 1000 nM
21 | COCCOc1ncccc1-c1ccc2c(c1)-c1nc(-c3ncnn3C(C)C)sc1CCO2 | < 1000 nM
22 | CC(O)c1ccc2c(c1)OCCc1sc(-c3ncnn3CC(F)(F)F)nc1-2 (stereo not given) | < 1000 nM

Row | Structure (SMILES) | IC50
23 | CC(C)n1ncc(CO)c1-c1cc2c(s1)-c1nc(Cl)ccc1OCC2 | < 1000 nM
24 | C[C@@H]1CN(c2ccc3c(n2)-c2sc(-c4ncnn4-c4ccc(F)cc4F)cc2CCO3)C[C@H](C)N1C(=O)C(F)F | < 1000 nM
25 | CC(C)n1nc(N)nc1-c1nc2c(s1)CCOc1cc(F)ccc1-2 | < 1000 nM
26 | CC(CO)Nc1ccc2c(n1)-c1sc(-c3ncnn3-c3ccc(F)cc3F)cc1CCO2 (stereo not given) | < 1000 nM
27 | CC(C)n1ncnc1-c1nc2c(s1)CCOc1ccc(-c3ccc(=O)[nH]c3)cc1-2 | < 1000 nM
28 | CC(=O)NCCNc1ccc2c(n1)-c1sc(-c3ncnn3-c3ccc(F)cc3F)cc1CCO2 | < 1000 nM
29 | O=S1(=O)CCN(c2ccc3c(n2)-c2sc(-c4ncnn4-c4ccc(F)cc4F)cc2CCO3)CC1 | < 1000 nM
30 | CC(C)N(CCO)C(=O)c1nc2c(s1)CCOc1ccc(-c3cnn(C[C@@H](C)O)c3)cc1-2 | < 1000 nM
31 | O=C(c1nc2c(s1)CCOc1cc(-c3cn[nH]c3)ccc1-2)N1CCN(C(=O)[C@H]2CCCO2)CC1 | < 1000 nM
32 | CC(C)n1ncnc1-c1nc2c(s1)CCOc1ccc(C#N)cc1-2 | < 1000 nM
33 | CN(C)CCNc1ccc(-c2ccc3c(n2)-c2sc(-c4ncnn4-c4ccc(F)cc4F)cc2CCO3)cn1 | < 1000 nM
34 | CC(C)n1ncnc1-c1nc2c(s1)CCOc1cc(C(=O)NCCOCCO)ccc1-2 | < 1000 nM
35 | CC(C)n1ncnc1-c1nc2c(s1)CCOc1ccc(-c3cccn(CCN4CCOCC4)c3=O)cc1-2 | < 1000 nM
36 | Fc1ccc(-n2ncnc2-c2cc3c(s2)-c2nc(N4CC5CC4CN5)ccc2OCC3)c(F)c1 (stereo not given) | < 1000 nM
37 | CC(C)n1ncnc1-c1nc2c(s1)CCOc1cc(C3CN(CCS(C)(=O)=O)C3)ccc1-2 | < 1000 nM
38 | CS(=O)(=O)CCNc1ccc(-c2ccc3c(n2)-c2sc(-c4ncnn4-c4ccc(F)cc4F)cc2CCO3)cn1 | < 1000 nM
39 | CC(C)(O)Cn1cc(-c2ccc3c(c2)OCCc2sc(-c4ncnn4Cc4ccncc4)nc2-3)cn1 | < 1000 nM
40 | O=C(c1nc2c(s1)CCOc1cc(-c3cn[nH]c3)ccc1-2)N1CCC(CO)CC1 | < 1000 nM
41 | Fc1ccc(-n2ncnc2-c2cc3c(s2)-c2nc(-c4ccc(N5CCOCC5)nc4)ccc2OCC3)c(F)c1 | < 1000 nM
42 | CN(C)CCN(C(=O)c1nc2c(s1)CCOc1cc(-c3cnn(CC(C)(C)O)c3)ccc1-2)C1CCCCC1 | < 1000 nM
43 | CC(C)CCN(C)C(=O)c1nc2c(s1)CCOc1cc(-c3cn[nH]c3)ccc1-2 | < 1000 nM
44 | CS(=O)(=O)n1cc(-c2ccc3c(c2)OCCc2sc(-c4ncnn4CC(F)(F)F)nc2-3)cn1 | < 1000 nM

Row | Structure (SMILES) | IC50
45 | Nc1ccc(-c2ccc3c(n2)-c2sc(-c4ncnn4-c4ccc(F)cc4F)cc2CCO3)cn1 | < 1000 nM
46 | CC(C)n1ncnc1-c1nc2c(s1)CCOc1cc(CNc3ccon3)ccc1-2 | < 1000 nM
47 | Cc1nc(-c2nc3c(s2)CCOc2cc(-c4cnn(C5CNC5)c4)ccc2-3)n(C(C)C)n1 | < 1000 nM
48 | OCCn1cc(-c2ccc3c(c2)OCCc2sc(-c4ncnn4CC(F)(F)F)nc2-3)cn1 | < 1000 nM
49 | O=S1(=O)CCC(n2cc(-c3ccc4c(c3)OCCc3sc(-c5ncnn5CC(F)(F)F)nc3-4)cn2)C1 (stereo not given) | < 1000 nM
50 | CC(C)n1ncnc1-c1nc2c(s1)CCOc1cc(C3CN(CC(=O)NCC(C)(C)O)C3)ccc1-2 | < 1000 nM
51 | C[C@H](O)CNC(=O)c1ccc2c(c1)OCCc1sc(-c3ncnn3CC(F)(F)F)nc1-2 | < 1000 nM
52 | Cc1nc(-c2nc3c(s2)CCOc2cc(C4CN(CC(=O)NC(C)C)C4)ccc2-3)n(C(C)C)n1 | < 1000 nM
53 | COCCn1cc(-c2ccc3c(c2)OCCc2sc(-c4ncnn4C(C)C)nc2-3)ccc1=O | < 1000 nM
54 | Cc1nc(-c2nc3c(s2)CCOc2cc(C4CN(C[C@H](O)CO)C4)ccc2-3)n(C(C)C)n1 | < 1000 nM
55 | CC(C)N(CCO)C(=O)c1nc2c(s1)CCOc1cc(-c3ccc(N4CCOCC4)nc3)ccc1-2 | < 1000 nM
56 | CC(=O)N1CCC(N(CCO)C(=O)c2nc3c(s2)CCOc2cc(-c4cnn(CC(C)(C)O)c4)ccc2-3)CC1 | < 1000 nM
57 | Cc1nc(-c2nc3c(s2)CCOc2cc(C4CN(CCS(C)(=O)=O)C4)ccc2-3)n(C(C)C)n1 | < 1000 nM
58 | CC(C)n1ncnc1-c1nc2c(s1)CCOc1ccc(-c3ccn(C)c(=O)c3)cc1-2 | < 1000 nM
59 | CN(C(=O)c1cc2c(s1)-c1ccc(C(=O)NCCS(C)(=O)=O)cc1OCC2)c1cc(C(=O)N2CC(F)(F)C2)ccc1Cl | < 1000 nM
60 | Cc1cc(-c2ccc3c(n2)-c2sc(-c4ncnn4-c4ccc(F)cc4F)cc2CCO3)cnc1F | < 1000 nM
61 | CC(C)n1cnnc1-c1nc2c(s1)CCOc1cc(C(=O)Nc3ccon3)ccc1-2 | < 1000 nM
62 | CCN(CC)CCn1cc(-c2ccc3c(c2)OCCc2sc(-c4ncnn4CC(F)(F)F)nc2-3)cn1 | < 1000 nM
63 | Cc1nc(-c2nc3c(s2)CCOc2cc(-c4cnn(C5CN(CC(C)(C)O)C5)c4)ccc2-3)n(C(C)C)n1 | < 1000 nM
64 | CN(C(=O)c1cc2c(s1)-c1ccc(C(=O)NCCS(C)(=O)=O)cc1OCC2)c1cc(C(=O)N2CCNCC2)ccc1Cl | < 1000 nM
65 | CN1CCN(C(=O)C2CCN(C(=O)c3nc4c(s3)CCOc3cc(-c5cn[nH]c5)ccc3-4)CC2)CC1 | < 1000 nM
